experiment: Human HepG2 cell viability assay in 384 well format; assay type: toxicity, cell-based; parameters: dose 125 nL, time 70.5 hour; concentration not given beside the values; conditions: HepG2 cells, read-out: Inhibition

Compound | cytotoxicity at 70.5 h [%]
O=C(COCc1ccccc1Cl)N1CCCC(n2ccnc2)C1 (configuration not stated) | 17.5
CCCc1nc(CN2CCN(C(C)c3nc(C4CC4)no3)CC2)no1 (configuration not stated) | -5.86
Cc1ccc(F)cc1S(=O)(=O)NCc1cccc(C(=O)N2CCCC2)c1 | -2.82
O=C(CCc1ccncc1)NCc1csc(Br)c1 | -7.74
Cc1ccccc1CN1CCN(C(C)c2nc(C3CC3)no2)CC1 (configuration not stated) | 17
Cc1cnn(CC2CN(Cc3csc(C(C)C)n3)CCO2)c1 (configuration not stated) | 20.8
CCc1n[nH]c(C2CN(C(=O)c3cnn(CC)c3)CCO2)n1 (configuration not stated) | 19.6
COc1ccc(C(=O)N2CCC(Nc3cccnn3)CC2)cn1 | 13.7
CCc1n[nH]c(C2CN(C(=O)c3ccc(NC4CC4)nc3)CCO2)n1 (configuration not stated) | -7.92
Cc1cnn(CC2CCCN2C(=O)c2cc(O)nc3ccccc23)c1 (configuration not stated) | -7.86
Cc1nc(CN2CCCN(C(=O)c3sccc3C#N)CC2)cs1 | 0.736
O=C(c1sccc1C1CC1)N1CCN(Cc2cscn2)CC1 | 5.77
CC(Cn1cccn1)NC(=O)NCc1ccoc1 (configuration not stated) | -10.1
CC(C)NC(=O)NCc1ccc(C(=O)NC(C)Cn2cccn2)cc1 (configuration not stated) | -13.2
Cc1ccc(CNC(=O)NC(C)Cn2cccn2)cn1 (configuration not stated) | -9.6
Cc1ccoc1C(=O)NC1CCN(C(=O)Nc2ccccn2)CC1 | -5.66
COc1ccccc1C(=O)N(C)Cc1nnc2ccccn12 | -14
COc1ccc(OC)c(C(=O)N(C)Cc2nnc3ccccn23)c1 | -15.1
Cn1ccnc1CN1CCN(CC(O)c2cc(F)ccc2F)CC1 (configuration not stated) | -10.1
CC(c1cccc(F)c1)N1CCN(Cc2nccn2C)CC1 (configuration not stated) | -9.9
CC(C)c1nc2c(n1C)CCN(CC(=O)Nc1ccnn1C(C)C)C2 | 0.248
COc1ccc(OCCC(=O)N2CCCC2Cn2cccn2)cc1 (configuration not stated) | 0.4
O=C(c1ccc(O)nc1)N1CCC(Nc2cccnn2)CC1 | -8.37
Cc1cnn(CC2CN(Cc3nc4cccnc4[nH]3)CCO2)c1 (configuration not stated) | 7.51

Compound | cytotoxicity at 70.5 h [%]
CN(Cc1cnn(C)c1)CC1CCCN1c1cccnn1 (configuration not stated) | -4.73
CN1CCN(C2CCN(Cc3nnc(C(C)(C)C)o3)CC2)C1=O | -1.9
CC(=O)Nc1nc(CN2CCOC(Cn3cncn3)C2)cs1 (configuration not stated) | -5.38
COCc1nc(C(=O)N2CCCC2Cn2cc(C)cn2)cs1 (configuration not stated) | -6.43
O=C(NCCCNc1ccc(C(F)(F)F)cn1)c1ccc(F)cc1F | -4.42
O=C(NCCNc1ccc(C(F)(F)F)cn1)c1cc(Cl)ccc1F | -4.63
COCCN1CC(C(=O)NCc2cccnc2-n2cccn2)CC1=O (configuration not stated) | -7.22
CC(C)CN1CC(C(=O)NCc2cccnc2-n2cccn2)CC1=O (configuration not stated) | -8.02
O=C(CCn1cncn1)NCC(c1ccco1)N1CCCCC1 (configuration not stated) | 7
O=C(c1cc(F)ccc1F)C1CCN(C(=O)c2cnccn2)CC1 | -4.44
CC(C)N(Cc1cccc(Cl)c1)Cc1nc2c(cnn2C)c(=O)[nH]1 | 6.79
CCN(Cc1ccc(F)c(F)c1)Cc1nc2c(cnn2C)c(=O)[nH]1 | -4.48
Cc1cnc(C(=O)N2CCC(C(=O)c3cc(F)ccc3F)CC2)cn1 | -5.07
Cc1cccc(C(=O)N2CCC(C(=O)c3cc(F)ccc3F)CC2)n1 | -7.52
O=C(NCCc1ccn(-c2ccccc2)n1)N1CCCC(O)C1 (configuration not stated) | 1.8
Cc1cnn(CC2CCCCN2C(=O)c2ccc3[nH]cnc3c2)c1 (configuration not stated) | 8.11
O=C(CNCCn1cccn1)NCC1(c2ccccc2)CCC1 | 1.86
O=C(CCCc1cccs1)N1CCC(N2CCNC2=O)CC1 | 22.1
CCc1csc(C2CCCN(C(=O)c3ccc4[nH]nnc4c3)C2)n1 (configuration not stated) | -0.976
O=C(CCc1cccs1)N1CCCC(N2CCNC2=O)C1 (configuration not stated) | -5.71
CCc1nc(C2CCCN(C(=O)c3ccc(OC)cc3)C2)no1 (configuration not stated) | 0.812
CCn1c(C)nnc1CN(C)C1CCN(CCCSC)C1 (configuration not stated) | 26.5
CC(=O)N(Cc1ncc(C)o1)C1CCN(Cc2sc(C)nc2C)C1 (configuration not stated) | -3.28
CCCc1n[nH]c(C2CN(C(=O)c3ccnc(C4CC4)n3)CCO2)n1 (configuration not stated) | -1.45

Compound | cytotoxicity at 70.5 h [%]
CCCc1nc(CNCC2CCCN2c2cccnn2)no1 (configuration not stated) | 22.6
COc1cc(CNCc2ccc(NC(=O)NC(C)C)cc2)cc(OC)c1 | 2.03
CC(C)NC(=O)Nc1ccc(CNCc2cccc(OC(F)F)c2)cc1 | 29.1
COC(=O)c1cccn1C1CCN(CC(=O)NC2CCCCC2)CC1 | -8.68
CN(C)c1ccc(C(=O)N2CCN(Cc3cscn3)CC2)cc1F | -8.39
Cc1cc(C)n(CC2CN(Cc3nc(-c4ccco4)no3)CCO2)n1 (configuration not stated) | 2.57
Cc1ccc(C#N)cc1NC(=O)NC1CCCN(c2ncccn2)C1 (configuration not stated) | -0.699
c1ccc(C(OCCNC2CCc3ncnn3C2)c2ccccc2)cc1 (configuration not stated) | -5.27
Cc1cnn(CC2CCCN2C(=O)c2cc3c(F)cccc3[nH]2)c1 (configuration not stated) | 6.2
Cc1ccc(-c2cc(CN3CCOC(Cn4cncn4)C3)on2)cc1 (configuration not stated) | 47.8
Cc1cnn(CC2CCCN2CC(=O)Nc2nc(C)cs2)c1 (configuration not stated) | 1.41
CCN(Cc1cccc2c1OCO2)C(=O)NC1CC1 | 8.97
Cc1cnn(CC2CCN(CC(O)COc3ccc(F)cc3)CC2)c1 (configuration not stated) | 26.5
COc1ccccc1OCC(=O)NS(=O)(=O)c1ccc(Br)s1 | -4.66
CCCC(C)C(=O)N1CCC(n2cccc2C(=O)OC)CC1 (configuration not stated) | -2.08
COCCc1noc(CN2CCOC(Cn3nc(C)cc3C)C2)n1 (configuration not stated) | 2.63
CCc1cnc(CN2CCC(N(C)Cc3noc(C4CC4)n3)C2)o1 (configuration not stated) | 23.8
CN(CC(=O)N1CCCN(Cc2cscn2)CC1)c1cnccn1 | -5.45
COCCc1noc(CN2CCCCC2Cn2nc(C)cc2C)n1 (configuration not stated) | -1.86
Cc1cnn(CC2CCCN2CC(=O)Nc2cc(C)nn2C)c1 (configuration not stated) | 9.7
Cc1ccc(N2CCCC(NCc3ccncc3)C2)nn1 (configuration not stated) | 11.6
O=C(COCC1CC1)N1CCCC(n2ccnc2)C1 (configuration not stated) | 5.1
CCc1nccn1C1CCCN(C(=O)Cc2cn3ccccc3n2)C1 (configuration not stated) | -3.88
Cc1ncc(CNCC2CCCN2c2cccnn2)s1 (configuration not stated) | -19.7

Compound | cytotoxicity at 70.5 h [%]
CC(=O)N(Cc1noc(C)n1)C1CCN(Cc2ccncc2Cl)C1 (configuration not stated) | -4.45
CC(NC(=O)NCc1ccc(Cl)cc1)c1ccccn1 (configuration not stated) | -10.7
CNS(=O)(=O)c1cccc(CNC(=O)c2c(C)nn(C)c2C)c1 | -3.24
CC(NC(=O)NCc1ccc(Cl)s1)c1ccccn1 (configuration not stated) | -20
CC(C)(C)C(=O)NCCc1ccn(-c2ccccc2)n1 | -17.1
CC(C)c1nc(CCNC(=O)NCc2ccnc(N(C)C)c2)cs1 | -10.2
Cn1ccc(CN2CCC(COC3CCCC3)CC2)cc1=O | -11
O=C(CCN1CCOC(Cn2cccn2)C1)NC1CCCC1 (configuration not stated) | 17.5
Cc1cnn(CC2CCCN2C(=O)c2cnc3n[nH]c(C)c3c2)c1 (configuration not stated) | 15.1
Cc1nc(C2CCCN(C(=O)c3cnn(C(C)(C)C)c3)C2)no1 (configuration not stated) | 23.3
Cc1ccc(CC(=O)N2CCCCC2c2nc(C)cs2)cn1 (configuration not stated) | -14.4
Cc1nc(C2CCCN(C(=O)c3ccc(N4CCCC4)nc3)C2)no1 (configuration not stated) | 1.03
Cc1cn2nc(N3CCCC3CC(C)(C)C)sc2n1 (configuration not stated) | -4.57
CCn1cc(C(=O)NCc2csc(Br)c2)cn1 | -11.6
CC(c1nc(C2CC2)no1)N1CCN(Cc2ccccc2F)CC1 (configuration not stated) | -6.67
Cc1ccc(N2CCCC(NCc3nc(C)c(C)o3)C2)nn1 (configuration not stated) | -14.3
Cc1cnn(C2CCCN(C(=O)CCCOc3cccc(F)c3)C2)c1 (configuration not stated) | 0.97
Cc1cc(C(=O)N2CCCC(n3cncn3)C2)c(C)n1C1CC1 (configuration not stated) | -1.59
Cc1cnn(CC2CCCN2Cc2nccn2C)c1 (configuration not stated) | 13.6
COc1c(CNCc2ccc(CN(C)C)cc2)c(C)nn1C | -4.98
COc1ccc(CN(C)CC2CCCN2c2cccnn2)cc1F (configuration not stated) | 44.2
CN(Cc1cccnc1)CC1CCCN1c1cccnn1 (configuration not stated) | 13.1
CC(=O)N(C)c1nc(CN2CCOC(Cn3cc(C)cn3)C2)cs1 (configuration not stated) | 13.6
CCN1CCN(C2CCN(Cc3nc4ccccc4o3)CC2)C1=O | -8.04

Compound | cytotoxicity at 70.5 h [%]
Cn1ccnc1CN1CCN(CC(O)c2ccco2)CC1 (configuration not stated) | -25.9
O=C(c1cc(F)ccc1F)C1CCN(C(=O)c2ccccn2)CC1 | -12.2
Cc1nc(CN2CCN(C(=O)c3cc(C4CC4)on3)CC2)cs1 | -14.7
Cc1cc(S(=O)(=O)NCc2cccc(C(=O)N3CCCC3)c2)c(C)s1 | -0.781
O=C(CCc1ccccc1)N1CCC(N2CCNC2=O)CC1 | -8.47
Cc1cnn(CC2CCCN2C(=O)c2nccc3ccccc23)c1 (configuration not stated) | -15.9
O=C(NCC(O)CN1CCc2ccccc2C1)Nc1cccnc1 (configuration not stated) | -17.4
O=C(c1cccc(CNS(=O)(=O)c2ccccc2F)c1)N1CCCC1 | -16.2
Cc1cnn(CC2CCCCN2C(=O)c2ccnc(N(C)C)c2)c1 (configuration not stated) | -17.7
CC(C)c1nc(C2CCCN(C(=O)c3ccc4[nH]cnc4c3)C2)no1 (configuration not stated) | -18.2
CCc1nc(C2CCCN(C(=O)c3ccc(OC(C)C)nc3)C2)no1 (configuration not stated) | 17.6
CC(C)c1nc(C2CCCN(C(=O)c3ccc4nccn4c3)C2)no1 (configuration not stated) | -3.59
CCn1cc(NC(=O)NCC(O)CN2CCCCC2)cn1 (configuration not stated) | -14.9
CCc1nc(C2CCCN(C(=O)c3ccc4[nH]nnc4c3)C2)no1 (configuration not stated) | -11
O=C(c1ccc(-n2cccn2)nc1)N1CCCN(c2cccnn2)CC1 | -14.8
O=C(c1ccn(-c2cccc(F)c2)n1)N1CCCC(n2cccn2)C1 (configuration not stated) | -15.2
COCc1nc(C(=O)N2CCCCC2Cn2cc(C)cn2)cs1 (configuration not stated) | 16.8
Cc1nc(CN2CCN(C(=O)c3sccc3C3CC3)CC2)cs1 | -13
CCn1c(C)nnc1CN(C)C1CCN(CCn2cccn2)C1 (configuration not stated) | 7.42
COc1c(CNCc2ccc(C(=O)N(C)C)cc2)c(C)nn1C | 0.637
CCc1ccc(OCC(O)CN2CCN(CCO)CC2)cc1 (configuration not stated) | -3.3

Reference: ChEMBL document CHEMBL3507680, “University of Dundee, Gates Library screen for HepG2 cell viability”
